In patent publication US12344597B2, “Alkoxy-substituted pyridinyl derivatives as LPA1 receptor antagonists and their use in the treatment of fibrosis” (IDORSIA PHARMACEUTICALS LTD, priority 2018, dated 2025):

Biological target: human LPA1 receptor (Homo sapiens (Human), UniProt Q92633)
Experiment: Beta-arrestin recruitment assay to determine IC50 values for human LPAR1
Format: cell-based
Details: antagonist mode, Tango EDG2-bla U2OS cells, LPA 18:1 500 nM final
In short: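 Antagonist IC50 = concentration giving 50% inhibition of maximal LPA response. Read-out is beta-lactamase reporter activity after arrestin-protease recruitment in U2OS cells bearing LPA1-TEV-Gal4-VP16 construct; cells pre-incubated 20 h, 37 °C, 5% CO2.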

Chain of human LPA1 receptor (Q92633 whole entry): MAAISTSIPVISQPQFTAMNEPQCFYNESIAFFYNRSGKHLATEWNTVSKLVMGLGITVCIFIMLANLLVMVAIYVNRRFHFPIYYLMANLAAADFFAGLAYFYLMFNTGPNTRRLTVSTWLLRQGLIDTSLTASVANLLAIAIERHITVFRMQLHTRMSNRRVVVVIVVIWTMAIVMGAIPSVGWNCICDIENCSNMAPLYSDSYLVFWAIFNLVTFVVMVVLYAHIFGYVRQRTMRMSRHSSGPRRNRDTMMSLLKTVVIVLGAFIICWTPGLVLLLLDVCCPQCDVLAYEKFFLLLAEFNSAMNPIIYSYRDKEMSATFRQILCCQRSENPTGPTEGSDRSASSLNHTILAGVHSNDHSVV

Molecule | IC50 [nM]
Cc1ccc(NC(=O)C2(c3ccccc3C(C)C)CN(c3ncc(C#N)cn3)C2)c(OC(F)F)n1 [Ex 18-24, 1-(5-cyanopyrimidin-2-yl)-N-(2-(difluoromethoxy)-6-methylpyridin-3-yl)-3-(2-isopropylphenyl)azetidine-3-carboxamide] | 2
Cc1ccc(NC(=O)C2(c3ccccc3C(C)C)CN(C(=O)CN[C@H](C)CO)C2)c(OC(F)F)n1 [Ex 12-58, (R)-N-(2-(difluoromethoxy)-6-methylpyridin-3-yl)-1-((R)-(1-hydroxypropan-2-yl)glycyl)-3-(2-isopropylphenyl)azetidine-3-carboxamide] | 10
CC(C)c1ccccc1C1(C(=O)Nc2ncc(Br)cc2OC(F)F)CN(CCC(C)(C)C(=O)O)C1 [Ex 78-3, 4-(3-((5-bromo-3-(difluoromethoxy)pyridin-2-yl)carbamoyl)-3-(2-isopropylphenyl)azetidin-1-yl)-2,2-dimethylbutanoic acid] | 13
CC(=O)N1CCC(CC(=O)N2CC(C(=O)Nc3ccc(C)nc3OC(F)F)(c3ccccc3C(C)C)C2)CC1 [Ex 12-137, 1-(2-(1-acetylpiperidin-4-yl)acetyl)-N-(2-(difluoromethoxy)-6-methylpyridin-3-yl)-3-(2-isopropylphenyl)azetidine-3-carboxamide] | 225
CCOC(=O)c1coc(N2CC(C(=O)Nc3cccnc3OC(F)F)(c3ccccc3C(C)C)C2)n1 [Ex 18-29, ethyl 2-(3-((2-(difluoromethoxy)pyridin-3-yl)carbamoyl)-3-(2-isopropylphenyl)azetidin-1-yl)oxazole-4-carboxylate] | 71
Cc1ccc(NC(=O)C2(c3ccccc3C(C)C)CN(c3nccc(C(=O)O)n3)C2)c(OC(F)F)n1 [Ex 18-15, 2-(3-((2-(difluoromethoxy)-6-methylpyridin-3-yl)carbamoyl)-3-(2-isopropylphenyl)azetidin-1-yl)pyrimidine-4-carboxylic acid] | 47
Cc1ccc(NC(=O)C2(c3ccccc3C(C)C)CN(CC3COC3)C2)c(OC(F)F)n1 [Ex 11-5, N-(2-(difluoromethoxy)-6-methylpyridin-3-yl)-3-(2-isopropylphenyl)-1-(oxetan-3-ylmethyl)azetidine-3-carboxamide] | 29
CC(C)c1cccnc1C1(C(=O)Nc2ncc(Cl)cc2OC(F)F)CN(S(N)(=O)=O)C1 [Example 81-7, N-(5-chloro-3-(difluoromethoxy)pyridin-2-yl)-3-(3-isopropylpyridin-2-yl)-1-sulfamoylazetidine-3-carboxamide] | 5
NS(=O)(=O)N1CC(C(=O)Nc2ncc(Cl)cc2OC(F)F)(c2ccccc2C2CCCC2)C1 [Example 81-6, N-(5-chloro-3-(difluoromethoxy)pyridin-2-yl)-3-(2-cyclopentylphenyl)-1-sulfamoylazetidine-3-carboxamide] | 22
Cc1ccc(NC(=O)C2(c3ccccc3C(C)C)CN(S(=O)(=O)CCCS(=O)(=O)O)C2)c(OC(F)F)n1 [Ex 13-30, 3-((3-((2-(difluoromethoxy)-6-methylpyridin-3-yl)carbamoyl)-3-(2-isopropylphenyl)azetidin-1-yl)sulfonyl)propane-1-sulfonic acid] | 49
CCOC(=O)Cc1coc(CN2CC(C(=O)Nc3ccc(C)nc3OC(F)F)(c3ccccc3C(C)C)C2)n1 [Ex 11-58, ethyl 2-(2-((3-((2-(difluoromethoxy)-6-methylpyridin-3-yl)carbamoyl)-3-(2-isopropylphenyl)azetidin-1-yl)methyl)oxazol-4-yl)acetate] | 68
COCCN(CC(=O)N1CCC(C(=O)Nc2ccc(C)nc2OC(F)F)(c2ccccc2C(C)C)CC1)C(=O)OC(C)(C)C [Ex 12-47, tert-butyl (2-(4-((2-(difluoromethoxy)-6-methylpyridin-3-yl)carbamoyl)-4-(2-isopropylphenyl)piperidin-1-yl)-2-oxoethyl)(2-methoxyethyl)carbamate] | 59
Cc1ccc(NC(=O)C2(c3ccccc3C(C)C)CCN(S(=O)(=O)CCC(=O)O)CC2)c(OC(F)F)n1 [Ex 13-8, 3-((4-((2-(difluoromethoxy)-6-methylpyridin-3-yl)carbamoyl)-4-(2-isopropylphenyl)piperidin-1-yl)sulfonyl)propanoic acid] | 7
Cc1cnc(NC(=O)C2(c3ccccc3C(C)C)CN(S(=O)(=O)CCC(=O)O)C2)c(OC(F)F)c1 [Ex 80-2, 3-((3-((3-(difluoromethoxy)-5-methylpyridin-2-yl)carbamoyl)-3-(2-isopropylphenyl)azetidin-1-yl)sulfonyl)propanoic acid] | 110
Cc1ccc(NC(=O)C2(c3ccccc3C(C)C)CN(S(=O)(=O)CC3(C(=O)O)COC3)C2)c(OC(F)F)n1 [Ex 13-16, 3-(((3-((2-(difluoromethoxy)-6-methylpyridin-3-yl)carbamoyl)-3-(2-isopropylphenyl)azetidin-1-yl)sulfonyl)methyl)oxetane-3-carboxylic acid] | 16
Cc1ccc(NC(=O)C2(c3ccccc3C(C)C)CN(C(=O)CNOCc3ccccc3)C2)c(OC(F)F)n1 [Ex 12-134, 1-((benzyloxy)glycyl)-N-(2-(difluoromethoxy)-6-methylpyridin-3-yl)-3-(2-isopropylphenyl)azetidine-3-carboxamide] | 6

Molecule | IC50 [nM]
Cc1ccc(NC(=O)C2(c3ccccc3C(C)C)CCN(C(=O)Cc3c[nH]nc3O)CC2)c(OC(F)F)n1 [Ex 12-27, N-(2-(difluoromethoxy)-6-methylpyridin-3-yl)-1-(2-(3-hydroxy-1H-pyrazol-4-yl)acetyl)-4-(2-isopropylphenyl)piperidine-4-carboxamide] | 4
Cc1ccc(NC(=O)C2(c3ccccc3C(C)C)CN(C(=O)NCCC(C)(C)C(=O)O)C2)c(OC(F)F)n1 [Ex 17-19, 4-(3-((2-(difluoromethoxy)-6-methylpyridin-3-yl)carbamoyl)-3-(2-isopropylphenyl)azetidine-1-carboxamido)-2,2-dimethylbutanoic acid] | 7
COc1cc(Br)cnc1NC(=O)C1(c2ccccc2C(C)C)CN(C(=O)CC(C)(C)C(=O)O)C1 [Ex 79-5, 4-(3-((5-bromo-3-methoxypyridin-2-yl)carbamoyl)-3-(2-isopropylphenyl)azetidin-1-yl)-2,2-dimethyl-4-oxobutanoic acid] | 104
Cc1ccc(NC(=O)C2(c3ccccc3C(C)C)CN(S(=O)(=O)CCC(=O)OCc3ccccc3)C2)c(OC(F)F)n1 [Ex 13-4, Benzyl 3-((3-((2-(difluoromethoxy)-6-methylpyridin-3-yl)carbamoyl)-3-(2-isopropylphenyl)azetidin-1-yl)sulfonyl)propanoate] | 10
COC(=O)CC(C)(C)NC(=O)N1CC(C(=O)Nc2ccc(C)nc2OC(F)F)(c2ccccc2C(C)C)C1 [Ex 17-1, Methyl 3-(3-((2-(difluoromethoxy)-6-methylpyridin-3-yl)carbamoyl)-3-(2-isopropylphenyl)azetidine-1-carboxamido)-3-methylbutanoate] | 18
2-(2-(3-((2-(difluoromethoxy)-6-methylpyridin-3-yl)carbamoyl)-3-(2-isopropylphenyl)azetidin-1-yl)ethoxy)-2-methylpropanoic acid [Ex 40] | 29
Cc1ccc(NC(=O)C2(c3ccccc3C(C)C)CN(C(=O)CCC(=O)O)C2)c(OC(C)C)n1 [Ex 12-68, 4-(3-((2-isopropoxy-6-methylpyridin-3-yl)carbamoyl)-3-(2-isopropylphenyl)azetidin-1-yl)-4-oxobutanoic acid] | 33
Cc1ccc(NC(=O)C2(c3ccccc3C(C)C)CN(C(=O)COCCOCC(=O)O)C2)c(OC(F)F)n1 [Ex 12-107, 2-(2-(2-(3-((2-(difluoromethoxy)-6-methylpyridin-3-yl)carbamoyl)-3-(2-isopropylphenyl)azetidin-1-yl)-2-oxoethoxy)ethoxy)acetic acid] | 150
Cc1ccc(NC(=O)C2(c3ccccc3C(C)C)CN(C(=O)N3CCNCC3)C2)c(OC(F)F)n1 [Ex 17-25, N-(2-(difluoromethoxy)-6-methylpyridin-3-yl)-3-(2-isopropylphenyl)-1-(piperazine-1-carbonyl)azetidine-3-carboxamide] | 270
Cc1ccc(NC(=O)C2(c3ccccc3C(C)C)CN(C(=O)CC3(C(=O)O)COC3)C2)c(OC(F)F)n1 [Ex 12-98, 3-(2-(3-((2-(difluoromethoxy)-6-methylpyridin-3-yl)carbamoyl)-3-(2-isopropylphenyl)azetidin-1-yl)-2-oxoethyl)oxetane-3-carboxylic acid] | 26
Cc1cnc(NC(=O)C2(c3ccccc3C(C)C)CN(C(=O)OCC(=O)O)C2)c(OC(F)F)c1 [Ex 83-2, 2-((3-((3-(difluoromethoxy)-5-methylpyridin-2-yl)carbamoyl)-3-(2-isopropylphenyl)azetidine-1-carbonyl)oxy)acetic acid] | 88
Cc1ccc(NC(=O)C2(c3ccccc3C(C)C)CN(CCC3(C(=O)O)CCOC3)C2)c(OC(F)F)n1 (stereo not shown) [Ex 11-76, 3-(2-(3-((2-(difluoromethoxy)-6-methylpyridin-3-yl)carbamoyl)-3-(2-isopropylphenyl)azetidin-1-yl)ethyl)tetrahydrofuran-3-carboxylic acid] | 18
Cc1ccc(NC(=O)C2(c3ccccc3C(C)C)CN(C(=O)NCC3(C(=O)O)CC3)C2)c(OC(F)F)n1 [Ex 17-15, 1-((3-((2-(difluoromethoxy)-6-methylpyridin-3-yl)carbamoyl)-3-(2-isopropylphenyl)azetidine-1-carboxamido)methyl)cyclopropane-1-carboxylic acid] | 16
Cc1ccc(NC(=O)C2(c3ccccc3C(C)C)CN(C(=O)[C@@H]3C[C@@H]3C(=O)O)C2)c(OC(F)F)n1 [Ex 12-95, (1S,2R)-2-(3-((2-(difluoromethoxy)-6-methylpyridin-3-yl)carbamoyl)-3-(2-isopropylphenyl)azetidine-1-carbonyl)cyclopropane-1-carboxylic acid] | 14
Cc1cc(Cl)nc(N2CC(C(=O)Nc3ccc(C)nc3OC(F)F)(c3ccccc3C(C)C)C2)n1 [Ex 18-26, 1-(4-chloro-6-methylpyrimidin-2-yl)-N-(2-(difluoromethoxy)-6-methylpyridin-3-yl)-3-(2-isopropylphenyl)azetidine-3-carboxamide] | 48
